# What was measured:
# Serine protease 1 = Serine protease 1 (Homo sapiens, UniProt P07477); assay: Inhibitory constant against trypsin using human purified enzymes
# Prothrombin = Prothrombin (Homo sapiens, UniProt P00734); assay: Inhibitory constant against thrombin using human purified enzymes
# Coagulation factor X = Coagulation factor X (Homo sapiens, UniProt P00742); assay: Inhibition of human purified factor Xa
# [1] = Half-life period after intravenous administration of 1.0 mg/kg in dog was determined; format: ADME, organism-based, Canis lupus familiaris; design: dose 1 mg/kg, route intravenous; details: in vivo
# Oryctolagus cuniculus = species: Oryctolagus cuniculus; assay: Antithrombotic efficacy in rabbit A-V shunt model was determined; format: functional
# [2] = Clearance after intravenous administration of 1.0 mg/kg in dog was determined; format: ADME, organism-based, Canis lupus familiaris; design: dose 1 mg/kg, route intravenous; details: in vivo
# [3] = Clearance after peroral administration of 0.2 mg/kg in dog was determined; format: ADME, organism-based, Canis lupus familiaris; design: dose 0.2 mg/kg, route oral; details: in vivo, po
# [4] = Clearance after intravenous administration of 0.5 mg/kg in dog was determined; format: ADME, organism-based, Canis lupus familiaris; design: dose 0.5 mg/kg, route intravenous; details: in vivo
# [5] = Half-life period after intravenous administration of 0.5 mg/kg in dog was determined; format: ADME, organism-based, Canis lupus familiaris; design: dose 0.5 mg/kg, route intravenous; details: in vivo
# [6] = Half-life period after peroral administration of 0.2 mg/kg in dog was determined; format: ADME, organism-based, Canis lupus familiaris; design: dose 0.2 mg/kg, route oral; details: in vivo, po
# Sequence of Serine protease 1 (P07477 whole entry): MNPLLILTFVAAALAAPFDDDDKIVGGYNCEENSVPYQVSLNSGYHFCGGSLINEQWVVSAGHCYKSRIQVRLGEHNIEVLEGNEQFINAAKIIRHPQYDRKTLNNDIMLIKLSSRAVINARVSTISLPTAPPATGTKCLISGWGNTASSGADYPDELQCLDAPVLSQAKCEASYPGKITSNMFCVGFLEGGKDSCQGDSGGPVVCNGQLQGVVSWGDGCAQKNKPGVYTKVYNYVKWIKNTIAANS
# Sequence of Coagulation factor X (P00742 41-179 limits assumed): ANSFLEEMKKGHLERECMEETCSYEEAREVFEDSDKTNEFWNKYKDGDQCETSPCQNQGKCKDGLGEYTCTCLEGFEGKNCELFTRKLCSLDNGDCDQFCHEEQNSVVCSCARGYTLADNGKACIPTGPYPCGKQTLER
# Sequence of Coagulation factor X (P00742 235-488 limits assumed): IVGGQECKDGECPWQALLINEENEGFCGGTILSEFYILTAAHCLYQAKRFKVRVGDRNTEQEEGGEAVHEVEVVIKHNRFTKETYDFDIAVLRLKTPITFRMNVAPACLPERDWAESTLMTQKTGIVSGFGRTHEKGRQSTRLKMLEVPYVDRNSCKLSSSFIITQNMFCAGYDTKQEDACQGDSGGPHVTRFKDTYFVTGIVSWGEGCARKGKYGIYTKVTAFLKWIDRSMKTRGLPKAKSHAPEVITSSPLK
Compound,Ki (Serine protease 1) [nM],Ki (Prothrombin) [nM],Ki (Coagulation factor X) [nM],further results
COc1ccc(-n2nnnc2C(=O)Nc2ccc(-c3ccccc3S(N)(=O)=O)cc2)cc1N,> 1600,4000,–,–
NCc1cccc(-n2nnnc2C(=O)Nc2ccc(-c3ccccc3S(N)(=O)=O)cc2)c1,69,> 21000,13,–
Nc1cc(-n2nnnc2C(=O)Nc2ccc(C(=O)N3CCCC3)cc2F)ccc1Cl,> 1600,1200,3,–
Nc1noc2ccc(-n3nnnc3C(=O)Nc3ccc(C(=O)N4CCCC4)cc3F)cc12,> 1600,> 21000,2.9,–
Nc1cc(-n2nnnc2C(=O)Nc2ccc(-c3ccccc3S(N)(=O)=O)cc2)ccc1Cl,> 1600,1600,5.4,–
Nc1cc(-n2nnnc2C(=O)Nc2ccc(-c3ccccc3S(N)(=O)=O)cn2)ccc1Cl,> 1600,7900,8,–
Nc1cc(-n2nnnc2C(=O)Nc2ccc(-c3ccccc3S(N)(=O)=O)cc2F)ccc1Cl,–,–,1.2,–
N=C(N)c1cccc(-n2nnnc2C(=O)Nc2ccc(-c3ccccc3S(N)(=O)=O)cc2)c1,6.4,–,–,half-life [1]: 0.65 h; ID50 (Oryctolagus cuniculus): 0.13 µM/h/kg; clearance [2]: 10.3 mL/min/kg
Nc1noc2ccc(-n3nnnc3C(=O)Nc3ccc(-c4ccccc4S(N)(=O)=O)cc3F)cc12,> 5200,600,0.35,CL/F [3]: 5 mL/min/kg; clearance [4]: 5 mL/min/kg; ID50 (Oryctolagus cuniculus): 5.8 µM/h/kg; half-life [5]: 3.1 h; half-life [6]: 3.1 h
Nc1cc(-n2nnnc2C(=O)Nc2ccc(-c3ccccc3S(N)(=O)=O)cc2Cl)ccc1Cl,> 1600,1600,3.3,–
COc1ccc(-n2nnnc2C(=O)Nc2ccc(-c3ccccc3S(N)(=O)=O)cc2)cc1,> 1600,10000,8,–
CS(=O)(=O)c1ccccc1-c1ccc(NC(=O)c2nnnn2-c2ccc3onc(N)c3c2)c(F)c1,> 1600,400,0.39,–
Nc1noc2ccc(-n3nnnc3C(=O)Nc3ccc(-c4ccccc4S(N)(=O)=O)cc3)cc12,> 1600,1500,0.98,–
